These compounds were tested against human P2X3 receptor (Homo sapiens (Human), UniProt P56373) (assay: Evaluation of human P2X3 receptor inhibitory activity (Test Example 1-1, FDSS 3000, 96-well, 50 nM ATP)). Conditions: human P2X3 receptor in C6BU-1 cells; Test Example 1-1 (compounds I-001 to I-300).
Sequence of human P2X3 receptor (P56373 whole entry): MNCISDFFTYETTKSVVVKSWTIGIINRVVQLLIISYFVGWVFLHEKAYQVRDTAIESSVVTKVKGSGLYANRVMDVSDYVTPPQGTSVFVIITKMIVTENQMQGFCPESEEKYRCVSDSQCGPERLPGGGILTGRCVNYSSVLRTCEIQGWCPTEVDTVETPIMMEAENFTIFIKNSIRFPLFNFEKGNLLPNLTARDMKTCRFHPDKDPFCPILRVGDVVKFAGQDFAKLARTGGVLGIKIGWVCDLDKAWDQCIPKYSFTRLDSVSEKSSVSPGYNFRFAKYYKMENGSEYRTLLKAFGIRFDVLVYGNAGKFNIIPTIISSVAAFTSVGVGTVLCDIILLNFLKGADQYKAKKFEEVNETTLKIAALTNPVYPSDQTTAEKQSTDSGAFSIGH
Format: cell-based
Experimental: Stably expressing cell line (C6BU-1 cell transfected with human P2X3 receptor gene (GenBank accession number Y07683) was used. The cells were seeded in a 96-well microtiter plate at a concentration of 8000 cells/well and cultured in the medium (7.0% fetal bovine serum, 7.0% horse serum, 1% antibiotic and antifungal in DMEM) for one day at 37° C. under 5% carbon dioxide atmosphere. The medium was replaced with 4 μM Fluo-3-AM solution (20 mM HEPES, 137 mM NaCl, 5.27 mM KCl, 0.9 mM MgCl2, 1.26 mM CaCl2, 5.6 mM D-glucose, 2.5 mM probenecid, 1% BSA, and 0.08% Pluronic F-127, pH 7.5) and incubated at 37° C. under 5% dioxide carbon atmosphere for one hour. The plate was washed with washing buffer (20 mM HEPES, 137 mM NaCl, 5.27 mM KCl, 0.9 mM MgCl2, 1.26 mM CaCl2, 5.6 mM D-glucose, 2.5 mM probenecid, pH7.5), and each well was added with 40 μL of this buffer. The plate was placed in High-Throughput Screening System. FDSS 3000 (Hamamatsu Photonics K.K.). Measurement of fluorescence intensity by FDSS 3000 was started, and 40 μL of DMSO solutions containing different concentrations of the test compound as prepared by dilution with dilution buffer (20 mM HEPES, 137 mM NaCl, 5.27 mM KCl, 0.9 mM MgCl2, 1.26 mM CaCl2, 5.68 mM D-glucose, 2.5 mM probenecid, 0.1% Pluronic F-127, pH7.5) were dispensed to each well through the built-in automatic dispenser. Five minutes after, 50 nM ATP solution (50 μL) prepared by dilution with the dilution buffer was dispensed through the built-in automatic dispenser, and the measurement of fluorescence intensity was continued for 4 min. For each well, the specific maximum fluorescence intensity was calculated as the ratio of the maximum fluorescence intensity after addition of the ATP solution to the fluorescence intensity at the starting of the measurement. The 50% inhibitory concentration (IC50) was calculated under the assumption that the specific maximum fluorescence intensity without test compound is 0% inhibition and that the specific maximum fluorescence intensity when the dilution buffer was added in place of ATP solution is 100% inhibition, to evaluate the inhibitory activity of the test compound. FDSS software (Hamamatsu Photonics K.K.) was used for calculation of the specific maximum fluorescence intensity. IC50 was calculated using Microsoft Excel (Microsoft Corporation) and XLfit (idbs Ltd.)
The data of the compounds I-001 to I-300 are the results by the method mentioned in Test Example 1-1, and the data of the compounds I-301 to I-483 are the results by the method mentioned in Test Example 1-2.
Compound `CCC(=O)Nc1c[nH]/c(=N\c2ccc(Oc3cnc(C(N)=O)cn3)cc2)n(Cc2ccc(Cl)cc2)c1=O` [Compound I-097] has an IC50 of 5 nM. `CCC(=O)Nc1c[nH]/c(=N\c2ccc(Oc3ccc(CO)nc3)cc2)n(Cc2ccc(Cl)cc2)c1=O` [Compound I-118] gave an IC50 of 17 nM. `CCc1cn(Cc2ccc(Cl)cc2)c(Nc2ccc(Oc3ncc(C(=O)O)s3)cc2)nc1=O` [Compound I-154] showed an IC50 of 317 nM. Work on `CCc1oc2ccc(Nc3nc(=O)c(C(=O)O)cn3Cc3ccc(Cl)cc3)cc2c1C` [Compound I-017] yielded an IC50 of 401 nM. With `CCC(=O)Nc1c[nH]/c(=N\c2ccc(Oc3ccnc(C(=O)OC)c3)cc2)n(Cc2ccc(Cl)cc2)c1=O` [Compound I-098] the IC50 was 11 nM. `Cc1cc(/N=c2\[nH]cc(C(N)=O)c(=O)n2Cc2ccc(Cl)cc2)ccc1Oc1cccc(F)n1` [Compound I-139] showed an IC50 of 16 nM. Work on `O=C(Nc1cnc(Nc2ccc(Oc3cccc(F)n3)cc2)n(Cc2ccc(Cl)cc2)c1=O)C1CCOCC1` [Compound I-134] yielded an IC50 of 2 nM. `CCn1c(=O)cc(Nc2ccc(Oc3cccc(C(N)=O)c3)cc2)n(Cc2ccc(Cl)cc2)c1=O` [Compound I-024] showed an IC50 of 14 nM. With `CCOC(=O)/N=C(\NC)Nc1c[nH]/c(=N\c2ccc(Oc3ccon3)cc2)n(Cc2ccc(Cl)cc2)c1=O` [Compound I-238] the IC50 was 990 nM. `CCCn1c(=O)cc(Nc2ccc(Oc3cccc(C(=O)OC)c3)cc2)n(Cc2ccc(Cl)cc2)c1=O` [Compound I-168] was tested, and the IC50 was 159 nM. Work on `O=C(Nc1c[nH]/c(=N\c2ccc(Oc3ccon3)cc2)n(Cc2ccc(F)cc2)c1=O)C1CCOCC1` [Compound I-123] yielded an IC50 of 24 nM. `CCn1c(=O)cc(Nc2ccc(Oc3cccc(C(=O)OC)c3)cc2)n(Cc2ccc(Cl)cc2)c1=O` [Compound I-008, 1-(4-chlorobenzyl)-3-ethyl-6-[4-(3-methoxycarbonylphenoxy)phenylamino]pyrimidin-2,4(1H,3H)-dione] was tested, and the IC50 was 38 nM. With `CCC(=O)Nc1c[nH]/c(=N\c2ccc(Oc3cccc(F)n3)cc2)n(Cc2ccc(Cl)cc2)c1=O` [Compound I-090] the IC50 was 11 nM. With `O=c1c(-c2ccc(O)nc2)c[nH]/c(=N\c2ccc(Oc3ccon3)cc2)n1Cc1ccc(Cl)cc1` [Compound I-205] the IC50 was 153 nM. `O=C(NC1CCOCC1)c1cn(Cc2ccccn2)c(Nc2ccc(Oc3cccc(F)n3)cc2)nc1=O` [Compound I-295] was tested, and the IC50 was 618 nM. `NC(=O)c1c[nH]/c(=N\c2ccc(Oc3ccc(F)cn3)c(F)c2)n(Cc2ccc(Cl)cc2)c1=O` [Compound I-208] showed an IC50 of 31 nM. Work on `CCOC(=O)c1cnc(Nc2ccc(Oc3ncc(C(=O)O)s3)cc2)n(Cc2ccc(Cl)cc2)c1=O` [Compound I-059] yielded an IC50 of 6 nM. In the case of `CCOC(=O)c1cnc(Oc2ccc(Nc3cc(=O)n(CC)c(=O)n3Cc3ccc(Cl)cc3)cc2)s1` [Compound I-010], the IC50 is reported as 4 nM. With `C=C(C)c1c[nH]/c(=N\c2ccc(Oc3cccc(C#N)n3)cc2)n(Cc2ccc(Cl)cc2)c1=O` [Compound I-147] the IC50 was 112 nM. For `CCC(=O)Nc1c[nH]/c(=N\c2ccc(Oc3ccnc(CO)c3)cc2)n(Cc2ccc(Cl)cc2)c1=O` [Compound I-163], the IC50 was 21 nM. In the case of `CCOC(=O)c1sc(Oc2ccc(Nc3cc(=O)n(CC)c(=O)n3Cc3ccc(Cl)cc3)cc2)nc1C` [Compound I-036], the IC50 is reported as 22 nM. Compound `CCc1oc2ccc(/N=c3\[nH]cc(NS(=O)(=O)C4CCOCC4)c(=O)n3Cc3ccc(Cl)cc3)cc2c1C` [Compound I-047] has an IC50 of 18 nM. For `C/C(O)=C(/C#N)C(=O)Nc1c[nH]/c(=N\c2ccc(Oc3ccon3)cc2)n(Cc2ccc(Cl)cc2)c1=O` [Compound I-242], the IC50 was 6 nM. `CCn1c(=O)cc(Nc2ccc(Oc3cccc(C(=O)O)n3)c(F)c2)n(Cc2ccc(Cl)cc2)c1=O` [Compound I-033] showed an IC50 of 1 nM. `CCc1c[nH]/c(=N\c2ccc(Oc3cccc(C#N)n3)cc2)n(Cc2ccc(Cl)cc2)c1=O` [Compound I-129] gave an IC50 of 61 nM. `O=C(NC1CCOCC1)c1cn(Cc2ccccc2F)c(Nc2ccc(Oc3cccc(F)n3)cc2)nc1=O` [Compound I-284] gave an IC50 of 42 nM. In the case of `CCc1oc2ccc(Nc3ncc(C(N)=O)c(=O)n3Cc3ccc(Cl)cc3)cc2c1C` [Compound I-020], the IC50 is reported as 50 nM. For `CCc1oc2ccc(Nc3ncc(NC(=O)C4CCOCC4)c(=O)n3Cc3cccc(Cl)c3)cc2c1C` [Compound I-078], the IC50 was 20 nM. With `CCn1c(=O)cc(Nc2ccc(Oc3ccc(C(=O)O)cc3)cn2)n(Cc2ccc(Cl)cc2)c1=O` [Compound I-054] the IC50 was 43 nM. `CCOC(=O)c1c[nH]/c(=N\c2ccc(Oc3ccc(C)nn3)cc2)n(Cc2ccc(Cl)cc2)c1=O` [Compound I-177] showed an IC50 of 14 nM. In the case of `O=C(NCCO)c1c[nH]/c(=N\c2ccc(Oc3ccon3)cc2)n(Cc2ccc(Cl)cc2)c1=O` [Compound I-101], the IC50 is reported as 71 nM. In the case of `O=C(O)c1cccc(Oc2ccc(Nc3cc(=O)[nH]c(=O)n3Cc3ccc(Cl)cc3)cc2)n1` [Compound I-067], the IC50 is reported as 34 nM. For `CC(C)(C)OC(=O)N1CCC(C(=O)Nc2c[nH]/c(=N\c3ccc(Oc4ccon4)cc3)n(Cc3ccc(Cl)cc3)c2=O)CC1` [Compound I-182], the IC50 was 52 nM. `COC(=O)[C@@H](C)Cn1c(=O)cc(Nc2ccc(Oc3cccc(F)n3)cc2)n(Cc2ccc(Cl)cc2)c1=O` [Compound I-116] was tested, and the IC50 was 6 nM. Work on `Cn1cc(C(=O)Nc2c[nH]/c(=N\c3ccc(Oc4ccon4)cc3)n(Cc3ccc(Cl)cc3)c2=O)cn1` [Compound I-233] yielded an IC50 of 236 nM. `O=C(O)c1cccc(Oc2ccc(Nc3ncc(C(=O)O)c(=O)n3Cc3ccc(Cl)cc3)cc2)n1` [Compound I-050] was tested, and the IC50 was 67 nM. `O=C(NC1CCOCC1)c1cn(Cc2ccc(Cl)cc2)c(Nc2ccc(Oc3nccs3)cc2)nc1=O` [Compound I-161] showed an IC50 of 22 nM. `Cc1cnc(-c2c[nH]/c(=N\c3ccc(Oc4cccc(C(N)=O)n4)cc3)n(Cc3ccc(Cl)cc3)c2=O)o1` [Compound I-288] was tested, and the IC50 was 15 nM. `CCc1oc2ccc(Nc3nc(=O)c(C(=O)NC4CCOCC4)cn3Cc3ccc(Cl)cc3)cc2c1C` [Compound I-021] was tested, and the IC50 was 20 nM. For `O=c1c(NC(=O)[C@H]2C[C@H](F)C2)c[nH]/c(=N\c2ccc(Oc3ccon3)cc2)n1Cc1ccc(Cl)cc1` [Compound I-218], the IC50 was 17 nM. `CN(C)C(=O)c1c[nH]/c(=N\c2ccc(Oc3cccc(C#N)n3)cc2)n(Cc2ccc(Cl)cc2)c1=O` [Compound I-209] was tested, and the IC50 was 102 nM. For `COC(=O)[C@@H](C)Cn1c(=O)cc(Nc2ccc(Oc3ccon3)cc2)n(Cc2ccc(Cl)cc2)c1=O` [Compound I-114], the IC50 was 17 nM. Work on `CCC(=O)Nc1c[nH]/c(=N\c2ccc(Oc3cccc(C#N)n3)cc2)n(Cc2ccc(Cl)cc2)c1=O` [Compound I-006] yielded an IC50 of 5 nM. With `O=C(NC1CCOCC1)c1cn(Cc2ccc(Cl)cc2)c(Nc2ccc(Oc3cccc(F)n3)cc2)nc1=O` [Compound I-156] the IC50 was 6 nM. For `CCn1c(=O)cc(Nc2ccc(Oc3cccc(C#N)n3)c(C)c2)n(Cc2ccc(Cl)cc2)c1=O` [Compound I-012], the IC50 was 2 nM. With `CCn1c(=O)cc(Nc2ccc(Oc3cccc(C(=O)O)c3)nc2)n(Cc2ccc(Cl)cc2)c1=O` [Compound I-062] the IC50 was 49 nM. In the case of `C[C@@H](Cn1c(=O)cc(Nc2ccc(Oc3ncccc3F)cc2)n(Cc2ccc(Cl)cc2)c1=O)C(=O)O` [Compound I-119], the IC50 is reported as 8 nM. For `Cc1cnc(-c2c[nH]/c(=N\c3ccc(Oc4ccon4)cc3)n(Cc3ccc(Cl)cc3)c2=O)o1` [Compound I-294], the IC50 was 84 nM. Compound `CCC(=O)N(CC)c1c[nH]/c(=N\c2ccc(Oc3cccc(C(=O)O)n3)cc2)n(Cc2ccc(Cl)cc2)c1=O` [Compound I-193] has an IC50 of 6 nM. For `CCC(=O)Nc1c[nH]/c(=N\c2ccc(Oc3ccc(C(=O)OC)nc3)cc2)n(Cc2ccc(Cl)cc2)c1=O` [Compound I-091], the IC50 was 3 nM. For `CCn1c(=O)cc(Nc2ccc(Oc3cccc(C(=O)O)n3)cc2)n(Cc2ccc(Cl)cc2)c1=O` [Compound I-040], the IC50 was 3 nM. Work on `CCc1oc2ccc(Nc3ncc(NC(=O)C4CCOCC4)c(=O)n3C[C@H]3CC[C@H](C)CC3)cc2c1C` [Compound I-082] yielded an IC50 of 9 nM. Compound `CC(=O)Nc1cnc(Nc2ccc(Oc3cccnn3)cc2)n(Cc2ccc(Cl)cc2)c1=O` [Compound I-069] has an IC50 of 68 nM. Work on `Cc1ccc(Oc2ccc(/N=c3\[nH]cc(C(N)=O)c(=O)n3Cc3ccc(Cl)cc3)cc2)nn1` [Compound I-180] yielded an IC50 of 21 nM. `CCc1oc2ccc(/N=c3\[nH]cc(CN4CCOCC4)c(=O)n3Cc3ccc(Cl)cc3)cc2c1C` [Compound I-057] showed an IC50 of 269 nM. `CCC(=O)Nc1c[nH]/c(=N\c2ccc(Oc3ccnc(C#N)c3)cc2)n(Cc2ccc(Cl)cn2)c1=O` [Compound I-276] was tested, and the IC50 was 165 nM.
